Reference: patent US20240092739A1, “COMPOUNDS AND METHODS OF USE” (Ferro Therapeutics, Inc, priority 2020, published 2024)
Read-outs that look alike come from different tables or passages of the source.

Experiments:
[1] = tested on: 786-O cells + Ferrastatin-1; experiment: GPX4 inhibition assay: cell proliferation (Alamar Blue) in 786-O cells with ferrostatin rescue; type: cell-based, human
Description: (§1) Cells (SJSA-1, 786-0 and A431) were seeded (5000 cells/100 μL/well) in 96-well tissue culture plate and incubated at 37° C./500 CO2 for 16-24 hours. The cells were then treated with compounds (25 μL of 5×). The compound concentrations were 10-0.0005 μM prepared in 3-fold serial dilutions with final DMSO concentration of 1%. The plates were then incubated for 24 h at 37° C./[…] in a moist environment. Then Alamar Blue™ reagent (final concentration 1×-12.5 μL) was added to each well and incubated for 1.5 hours at 37° C./500 CO2. The plates were read on fluorescence reader at 540 nm excitation and 590 nm emission wavelengths. The IC50 values were subsequently determined using a sigmoidal dose-response curve (variable slope) in GraphPad Prism® 5 software. Tables A-3 and B-11 show cell proliferation data for exemplary compounds as described herein.
Studies have shown that lipophilic antioxidants, such as ferrostatin, can rescue cells from GPX4 inhibition-induced ferroptosis. For instance, mesenchymal state GPX4-knockout cells can survive in the presence of ferrostatin, however, when the supply of ferrostatin is terminated, these cells undergo ferroptosis (see, e.g., Viswanathan et al., Nature 547:453-7, 2017). […] Accordingly, the ability of a molecule to induce ferroptotic cancer cell death, and that such ability is admonished by the addition of ferrostatin, is clear indication that the molecule is an GPX4 inhibitor. Cell proliferation data for exemplary compounds with and without ferrostatin can be seen in Table A-3.

[2] = tested on: 786-O (renal cell carcinoma) cells; experiment: Cell proliferation (Alamar Blue) assay, 786-O cells; type: cell-based; settings: Homo sapiens
Description: (§2) Cell viability assay was performed to assess the potency of the compounds in human cancer cell lines 786-0 (renal cell carcinoma) and SJSA-1 (osteosarcoma). Additional cell lines, such as pancreatic cancer cell lines (Panc 02.13, BxPC-3, Panc 12, Panc 02.03, Panc 6.03, PSN-1, HPAC, and Capan-1), prostate cancer cell lines (PC-3, DU145, […], NCI-H660, 1PH1 LNCaP, BM-1604, and MDA PCa 2b), etc., can be tested in a similar method.
as §1

[3] = tested on: A431 cells; experiment: Cell proliferation (Alamar Blue) assay, A431 cells; type: cell-based; settings: Homo sapiens
Description: as §2, §1

[4] = 786-O cells in presence of Ferrastatin-1 (rescue), read-out: IC50 (μM) 786-O + Ferrastatin-1
[5] = 786-0, 786-O cells, 24 h compound treatment, Alamar Blue, read-out: IC50 (μM) 786-O
[6] = A-431, A431 cells, 24 h compound treatment, Alamar Blue, read-out: IC50 (μM) A431
[7] = 786-O cells with Ferrastatin-1 (rescue), read-out: Cell proliferation IC50 (μM) 786-O + Ferrastatin-1
[8] = 786-0, 786-O cells, 24 h compound incubation, Alamar Blue, read-out: Cell proliferation IC50 (μM) 786-O
[9] = A-431, A431 cells, 24 h compound incubation, Alamar Blue, read-out: Cell proliferation IC50 (μM) A431

SMILES | IC50 [1, 4] | IC50 [2, 5] | IC50 [3, 6] | IC50 [1, 7] | IC50 [2, 8] | IC50 [3, 9] | IC50 ([2]; 786-0, 24 h, read-out: Cell proliferation IC50 (μM) 786-O) | IC50 ([3]; A-431, 24 h, read-out: Cell proliferation IC50 (μM) A431)
C#CC(=O)N1[C@@H](CCCC)Cc2cc(C(F)F)ccc2[C@@H]1c1ccc(NC23CC4CC(CC(C4)C2)C3)cc1 [Compound B-63] | 0.939 µM | 0.009 µM | 0.727 µM |  |  |  |  | 
C#CC(=O)N1[C@@H](CCCC)Cc2cc(C#N)ccc2[C@@H]1c1ccc(NC23CC4CC(CC(C4)C2)C3)cc1 [Compound B-78] | 0.662 µM | 0.004 µM | 0.569 µM |  |  |  |  | 
COC[C@H]1Cc2cc(OC)ccc2[C@@H](c2ccc(NC34CC5CC(CC(C5)C3)C4)cc2)N1C(=O)C#C[Si](C)(C)C [Compound A-5] |  |  |  | > 1 µM | 0.039 µM | > 1 µM |  | 
C#CC(=O)N1[C@@H](CCCC)Cc2cc(C(F)(F)F)ccc2[C@@H]1c1ccc(NC23CC4CC(CC(C4)C2)C3)cc1 [Compound B-77] | 1.21 µM | 0.012 µM | 0.557 µM |  |  |  |  | 
CCCC[C@H]1Cc2cc(OC)ccc2[C@H](C23CC(F)(C2)C3)N1C(=O)C#C[Si](C)(C)C [Compound A-9, 1-((1S,3S)-3-butyl-1-(3-fluorobicyclo[1.1.1]pentan-1-yl)-6-methoxy-3,4-dihydroisoquinolin-2(1H)-yl)-3-(trimethylsilyl)prop-2-yn-1-one] |  |  |  | > 1 µM | 0.18 µM | > 1 µM |  | 
CCCC[C@H]1Cc2cc(OC)ccc2[C@H](c2ccc(NC34CC5CC(CC(C5)C3)C4)cc2)N1C(=O)C#C[Si](C)(C)C [Compound A-6, 1-((1S,3S)-1-(4-(((1s,3R)-adamantan-1-yl)amino)phenyl)-3-butyl-6-methoxy-3,4-dihydroisoquinolin-2(1H)-yl)-3-(trimethylsilyl)prop-2-yn-1-one] |  |  |  | > 1 µM | 0.021 µM | > 1 µM |  | 
CCCC[C@H]1Cc2cc(OC)ccc2[C@H](c2ccc(NC3CC(F)(F)C3)cc2)N1C(=O)C#C[Si](C)(C)C [Compound A-11, 1-((1S,3S)-3-butyl-1-(4-((3,3-difluorocyclobutyl)amino)phenyl)-6-methoxy-3,4-dihydroisoquinolin-2(1H)-yl)-3-(trimethylsilyl)prop-2-yn-1-one] |  |  |  | > 1 µM | 0.109 µM | > 1 µM |  | 
C#CC(=O)N1[C@@H](CCCC)Cc2cc(OC)ccc2[C@H]1c1ccc(NC23CC4CC(CC(C4)C2)C3)c(C#N)c1 [Compound B-81] | ≥ 10 µM | 0.01 µM | 4.9 µM |  |  |  |  | 
CCCC[C@H]1Cc2cc(OC)ccc2[C@H](c2ccc(N3CCC(F)(F)C3)cc2)N1C(=O)C#C[Si](C)(C)C [Compound A-12, 1-((1S,3S)-3-butyl-1-(4-(3,3-difluoropyrrolidin-1-yl)phenyl)-6-methoxy-3,4-dihydroisoquinolin-2(1H)-yl)-3-(trimethylsilyl)prop-2-yn-1-one] |  |  |  | > 1 µM | 0.051 µM | > 1 µM |  | 
CCCC[C@H]1Cc2cc(OC)ccc2[C@H](c2ccc(C#N)cc2)N1C(=O)C#C[Si](C)(C)C [Compound A-1] |  |  |  | 7 µM | 0.043 µM | > 10 µM |  | 
CCCC[C@H]1Cc2c([nH]c3ccccc23)[C@H](c2ccc(NC3CCC3)cc2)N1C(=O)C#C[Si](C)(C)C [Compound A-2] |  |  |  | 8.63 µM |  |  | 0.009 µM | > 10 µM
C#CC(=O)N1[C@@H](CCCC)Cc2cc(OC)ccc2[C@@H]1c1ccc(NC23CC4CC(CC(C4)C2)C3)c(F)c1 [Compound B-84] | 0.056 µM | 0.037 µM | 0.881 µM |  |  |  |  | 
CCCC[C@H]1Cc2cc(C(F)(F)F)ccc2[C@H](c2ccc(NC34CC5CC(CC(C5)C3)C4)cc2)N1C(=O)C#C[Si](C)(C)C [Compound A-28] |  |  |  | 3.58 µM | 0.015 µM | 2.94 µM |  | 
C#CC(=O)N1[C@@H](CCCC)Cc2cc(OC(F)(F)F)ccc2[C@@H]1c1ccc(NC23CC4CC(CC(C4)C2)C3)cc1 [Compound B-79] | 1 µM | 0.017 µM | 7 µM |  |  |  |  | 
C#CC(=O)N1[C@@H](CCC(C)C)Cc2cc(OC)ccc2[C@@H]1c1ccc(NC23CC4CC(CC(C4)C2)C3)cc1 [Compound B-72] | 1.6 µM | 0.036 µM | 1.7 µM |  |  |  |  | 
C#CC(=O)N1[C@@H](CCCC)Cc2cc(OCCOC(=O)CN)ccc2[C@@H]1c1ccc(NC23CC4CC(CC(C4)C2)C3)cc1 [Compound B-57] | 2.81 µM | 0.005 µM | 2.88 µM |  |  |  |  | 
CCCC[C@H]1Cc2cc(OC)ccc2[C@@H](c2ccc(NC34CC5CC(CC(C5)C3)C4)c(C#N)c2)N1C(=O)C#C[Si](C)(C)C (stereo in doubt) [Compound A-16, 2-(((3S,5S,7S)-adamantan-1-yl)amino)-5-((1R,3S)-3-butyl-6-methoxy-2-(3-(trimethylsilyl)propioloyl)-1,2,3,4-tetrahydroisoquinolin-1-yl)benzonitrile] |  |  |  | > 10 µM | 0.016 µM | ≥ 10 µM |  | 
COc1ccc2c(c1)C[C@H](C1CCC1)N(C(=O)C#C[Si](C)(C)C)[C@@H]2c1ccc(NC23CC4CC(CC(C4)C2)C3)cc1 (stereo in doubt) [Compound A-8, 1-((1R,3R)-1-(4-(((3S,5S,7S)-adamantan-1-yl)amino)phenyl)-3-cyclobutyl-6-methoxy-3,4-dihydroisoquinolin-2(1H)-yl)-3-(trimethylsilyl)prop-2-yn-1-one] |  |  |  | 5.05 µM | 0.064 µM | 4.79 µM |  | 
CCCC[C@H]1Cc2cc(OC)ccc2[C@H](c2ccc(NC34CC5CC(CC(C5)C3)C4)cc2)N1C(=O)C#C[Si](C)(C)CCCOC(C)=O [Compound A-41] |  |  |  | 1.86 µM | 0.0125 µM | 0.563 µM |  | 
C#CC(=O)N1[C@@H](CCCC)Cc2cc(OC)ncc2[C@@H]1c1ccc(NC23CC4CC(CC(C4)C2)C3)cc1 [Compound B-67] | 1.19 µM | 0.005 µM | 1.13 µM |  |  |  |  | 
C#CC(=O)N1[C@@H](CC(C)C)Cc2cc(OC)ccc2[C@@H]1c1ccc(NC23CC4CC(CC(C4)C2)C3)cc1 [Compound B-71] | 1.71 µM | 0.066 µM | 1.18 µM |  |  |  |  | 
C#CC(=O)N1[C@@H](CCCC)Cc2cc(OC)ccc2[C@@H]1c1ccc(NC23CC4CC(CC(C4)C2)C3)c(Cl)c1 [Compound B-66] | 2.62 µM | 0.055 µM | 3.15 µM |  |  |  |  | 
C#CC(=O)N1[C@@H](CCCC)Cc2cc(CO)ccc2[C@@H]1c1ccc(NC23CC4CC(CC(C4)C2)C3)cc1 [Compound B-62] | 7.15 µM | 0.005 µM | 2.43 µM |  |  |  |  | 
C#CC(=O)N1[C@@H](CCCC)Cc2cc(OC)ccc2[C@@H]1c1ccc(NC23CC4CC(CC(O)(C4)C2)C3)cc1 [Compound B-13] | 2.01 µM | 0.055 µM | 1.49 µM |  |  |  |  | 
C#CC(=O)N1[C@@H](CCCC)Cc2cc(OCc3cn(CCOCCOCCOCCNC(=O)CCCC[C@@H]4SC[C@@H]5NC(=O)N[C@@H]54)nn3)ccc2[C@@H]1c1ccc(NC23CC4CC(CC(C4)C2)C3)cc1 [Compound B-65] | ≥ 10 µM | ≥ 10 µM | ≥ 10 µM |  |  |  |  | 
C#CC(=O)N1[C@@H](CCCC)Cc2cc(OCCO)ccc2[C@@H]1c1ccc(NC23CC4CC(CC(C4)C2)C3)cc1 [Compound B-60] | 2.18 µM | 0.005 µM | 2.12 µM |  |  |  |  | 
C#CC(=O)N1[C@@H](CCCC)Cc2cc(OC)ncc2[C@H]1c1ccc(NC23CC4CC(CC(C4)C2)C3)cc1 [Compound B-68] | 2.61 µM | 0.042 µM | 2.35 µM |  |  |  |  | 
CCCC[C@H]1Cc2cc(OCCO)ccc2[C@H](c2ccc(NC34CC5CC(CC(C5)C3)C4)cc2)N1C(=O)C#C[Si](C)(C)C [Compound A-44] |  |  |  | 2.82 µM | 0.0053 µM | 2.24 µM |  | 
COc1ccc2c(c1)C[C@H](CC(C)C)N(C(=O)C#C[Si](C)(C)C)[C@H]2c1ccc(NC23CC4CC(CC(C4)C2)C3)cc1 [Compound A-43] |  |  |  | 2.13 µM | 0.0725 µM | 1.83 µM |  | 
CCCC[C@H]1Cc2cc(OC)ccc2[C@@H](C23CC(F)(C2)C3)N1C(=O)C#C[Si](C)(C)C [Compound A-10, 1-((1R,3S)-3-butyl-1-(3-fluorobicyclo[1.1.1]pentan-1-yl)-6-methoxy-3,4-dihydroisoquinolin-2(1H)-yl)-3-(trimethylsilyl)prop-2-yn-1-one] |  |  |  | > 1 µM | 0.075 µM | > 1 µM |  | 
